Type in all cases: physicochemical
The nature of data set [1]: Water solubility at RT, 24 hours, HPLC/pH/XRPD. The protocol: The HPLC method used for solubility measurements is summarized below:
Water solubility was measured in water at RT to evaluate solubility and disproportionation risk. […] After centrifugation, supernatants were collected for HPLC and pH tests, and wet cakes were collected for XRPD characterization.

A short description of data set [2]: Stability in oven at 60° C. for two weeks. The protocol:
Amorphous Compound 1, Compound 1 Fumarate Form E, and Compound 1 Fumarate Form A Anhydrate were placed in an oven at 60° C. for two weeks to evaluate their stability.

The nature of data set [3]: Dynamic vapor sorption (DVS) hygroscopicity. The protocol:
Dynamic Vapor Sorption (DVS) was measured by a SMS (Surface Measurement Systems) DVS Intrinsic. Parameters for DVS test are listed below:
Alternatively, DVS was performed using Intrinsic DVS ([…], UK). About 30-50 mg of sample was placed in a sample basked and hung in the measuring chamber. For an isotherm test, the chamber temperature is maintained by a water bath at a constant 25±1° C. The sample was tested at a targeted RH from 0 to 90% full cycle in step mode. The analysis was performed in 10% RH increments. Time duration at each RH was set as 60 min so that the sample could reach equilibrium with the chamber environment. Data were collected in 20 s increments.
A DVS isotherm plot was collected at 25° C. to investigate the solid form stability as a function of humidity. For Compound 1 Fumarate Form A Anhydrate, solids were pre-equilibrated at 0% RH to remove the unbounded solvent or water before the hygroscopicity experiment was started.

Data set [4] in a line: Solubility by gravimetric method. To be noted: H2O, 25° C. The protocol:
Solubility studies of Compound 1 and Compound 1 Fumarate in different solvents at 25° C. were performed. Solubility was measured by the dynamic method and gravimetric method.
Gravimetric method: Excess solids and a certain amount of solvent were added 8 mL vials, stirred for 24 hours, and filtered.

Data set [5] in a line: Competitive slurry of Fumarate Form E and Fumarate Form A Anhydrate (XRPD). The protocol:
Competitive slurry experiments were performed with Compound 1 Fumarate Form E and Compound 1 Fumarate Form A Anhydrate, as follows:
Experiment #1: Compound 1 Fumarate Form E (100 mg), Compound 1 Fumarate Form A Anhydrate (100 mg), and isopropanol (2 mL) were added into two 8-mL vials and mixed well in a shaker at 25° C. and 40° C., respectively. Samples for analysis were taken at 24 h and 72 h.
Experiment #2: Compound 1 Fumarate Form E (100 mg), Compound 1 Fumarate Form A Anhydrate (100 mg), and water (2 mL) were added into two 8-mL vials and mixed well in a shaker at 25° C. and 40° C., respectively. Samples for analysis were taken at 24 h and 72 h.
Experiment #3: Compound 1 Fumarate Form E (100 mg), Compound 1 Fumarate Form A Anhydrate (100 mg), and ethyl acetate (2 mL) were added into two 8-mL vials and mixed well in a shaker at 25° C. and 40° C., respectively. Samples for analysis were taken at 24 h and 72 h.

The nature of data set [6]: Slurry in isopropanol for 1 day (XRPD).

One compound from US20250214996A1, “SALTS AND SOLID FORMS OF AN ESTROGEN RECEPTOR ANTAGONIST” (Olema Pharmaceuticals, Inc., priority 2022, published 2025) can be followed below.

By Solubility is commonly meant the dissolved amount per volume that the medium holds. A lower Solubility goes with little dissolved substance. Consider `CCCN1CC(Oc2ccc([C@@H]3c4[nH]c5ccccc5c4C[C@@H](C)N3CC(C)(C)F)cc2)C1.O=C(O)/C=C/C(=O)O` [Compound 1 Fumarate Form A Anhydrate], for which the Purity in data set [1] (HPLC after 24 hours in water at RT) was about 100%. Besides, in data set [1] (supernatant after 24 hours in water at RT), the pH came out at 5.24. Also, the “Solubility in Water” value in data set [1] (water, RT, 24 hours, stirring at 400 rpm) was determined as 2230 µg/mL. In addition, in data set [1] (wet cake XRPD after 24 hours in water at RT), the “Form Change after 24 h?” value is “No”. The “HPLC Purity (%) Starting” value in data set [2] (before storage) turned out to be 99.58%. In data set [2] (form after oven at 60° C. for two weeks), the XRPD entry is “No change”. Also, in data set [2] (oven at 60° C. for two weeks), the “HPLC Purity (%) 60° C.” value is given as 99.54%, the “HPLC Purity (%) Degradation” value was −0.04% and the “stability relative to Amorphous Compound 1” value was “improved stability”. Besides, the “hygroscopicity by DVS” value in data set [3] (DVS) was “non-hygroscopic”. Besides, the “water uptake up to 80% RH” value in data set [3] (DVS isotherm at 25° C.) is on record as “less than 0.20%”. Further, in data set [3] (XRPD before and after DVS), the “Form Change after DVS?” value is “No”. For the same compound, the “Hygroscopicity (%)* (class)” value in data set [3] (based on water uptake at 25° C./80% RH) was “Non-hygroscopic”. In data set [3] (water uptake at 25° C./80% RH), the “Hygroscopicity (%)* (water uptake)” value is listed as “(0.108) %”. In addition, the “Solubility” value in data set [4] turned out to be 6500 µg/mL. Moreover, in data set [5] (ethyl acetate, 72 h at 25° C. or 40° C.), the “competitive slurry outcome (XRPD)” value is “a mixture of Compound 1 Fumarate Form E and Compound 1 Fumarate Form A Anhydrate remained”. The “competitive slurry outcome (XRPD)” value in data set [5] (isopropanol, 24 h at 25° C. or 40° C.) is recorded as “completely transformed into Compound 1 Fumarate Form E”. The “competitive slurry outcome (XRPD)” value in data set [5] (water, 72 h at 25° C. or 40° C.) was “a mixture of Compound 1 Fumarate Form E and Compound 1 Fumarate Form A Anhydrate remained”. In data set [6], the “form after slurrying (XRPD)” value was “No change in form”.
